The nature of data set [1]: Primary screening of photostability of the CyNA library (time-course fluorescence, 8 h). It counts as physicochemical. The arrangement: F/Fo, fluorescent intensity at 8 hours vs 0 hours: unit: %. The note with it: 10 μM in HEPES 100 mM pH 7.4, 2% DMSO. The method, then: As a primary evaluation of photo stability, the decrease in fluorescence intensity of the 80 CyNA compounds was measured (see Table 2). The average decrease in fluorescence intensity after 8 hours of irradiation by a xenon lamp was approximately 18%. A subset of the most photostable compounds (i.e., F/Fo reported in Table 2 was greater than or equal to 95) was examined under stronger irradiation in various buffers.
10-μM CyNA solutions in 100 mM HEPES buffer (pH 7.4) containing 2% DMSO were placed in a 96-well black plate, and fluorescence intensity measurements were recorded every 10 minutes for a total period of 8 hours (excitation-emission: 790-820 nm). A subset of fourteen compounds selected according to their F8h/Fo quotients, quantum yields and maximum relative fluorescence units (RFU) values was further evaluated in a secondary screening

A short description of data set [2]: Absorbance and fluorescence maximum wavelengths and quantum yields of the CyNA library. The note with it: for λabs, absorbance maximum wavelength / λem, fluorescence maximum wavelength: CyNA library; for φ, quantum yield: in DMSO, Cardiogreen as standard. It counts as physicochemical. The method, then:
Since the k values of the different CyNA compounds indicated some dependency on the chemical structure of the amine, the CyNA scaffold was derivatized with a broad range of primary amines (FIGS. 4A-4C). The fluorescence properties of the 80-member CyNA library were measured. The absorption maximum wavelengths ranged from 802 nm to 806 nm, emission maximum wavelengths ranged from 817 nm to 823 nm, and the average quantum yield was approximately 0.10 (Table 2).
All the chemicals (building block amines plus others) and solvents were purchased from Sigma Aldrich, Alfa Aesar, Fluka, MERCK or Acros, and used without further purification. ^1H-NMR and ^13C-NMR spectra were recorded on Bruker Avance 300 NMR and 500 NMR spectrometers, and chemical shifts are expressed in parts per million (ppm). High-resolution mass spectrometry (HRMS) data was recorded on a Micromass VG 7035. Photobleaching experiments were performed using a UVP Blak-Ray® B-100AP high intensity UV lamp (100 W, 365 nm) Spectroscopic and quantum yield data were measured on a SpectraMax M2 spectrophotometer (Molecular Devices), and the data analysis was performed using GraphPrism 5.0. Photobleaching measurements were performed using an Eclipse Ti-U Nikon microscope (filter cube: 750/800) attached to Ti:sappire oscillator that operated in continuous wave mode, and the data was processed using the software NIS-Elements 3.10. In vivo images were taken in an IVIS Spectrum imaging system (Caliper Life Sciences).

The source of these data is patent US9201014B2, “Development of photostable near-IR cyanine dyes for in vivo imaging” (National University of Singapore, priority 2010, dated 2015).

`CCCN1/C(=C/C=C2\CCCC(/C=C/C3=[N+](CCC)c4ccccc4C3(C)C)=C2N(CC(C)CC)C(C)=O)C(C)(C)c2ccccc21` (stereo not drawn) [CyNA-574]: in data set [1], the “F/Fo, fluorescent intensity at 8 hours vs 0 hours” value (“F/Fo … vs 0 hours” below) was found to be 38 and the “max RFU, maximum relative fluorescence units” value is 321.1. Also, in data set [2], the “λabs, absorbance maximum wavelength” value worked out at 803 nm; the “λem, fluorescence maximum wavelength” value stood at 818 nm; the “φ, quantum yield” value was determined as 0.06.

As for `CCCN1/C(=C/C=C2\CCCC(/C=C/C3=[N+](CCC)c4ccccc4C3(C)C)=C2N(CCCN2CCCC2=O)C(C)=O)C(C)(C)c2ccccc21` [CyNA-11], in data set [1], the “F/Fo … vs 0 hours” value is recorded as 90 and the “max RFU, maximum relative fluorescence units” value stood at 1250.1. In data set [2], the “λabs, absorbance maximum wavelength” value was determined as 802 nm; the “λem, fluorescence maximum wavelength” value was 820 nm; the “φ, quantum yield” value is 0.11.

Regarding `CCCN1/C(=C/C=C2\CCCC(/C=C/C3=[N+](CCC)c4ccccc4C3(C)C)=C2N(Cc2ccc(Cl)cc2)C(C)=O)C(C)(C)c2ccccc21` [CyNA-221], in data set [1], the “F/Fo … vs 0 hours” value is listed as 86 and the “max RFU, maximum relative fluorescence units” value is reported as 382.6. In data set [2], the “λabs, absorbance maximum wavelength” value is given as 803 nm; the “λem, fluorescence maximum wavelength” value worked out at 820 nm; the “φ, quantum yield” value was determined as 0.07.

Take `CCCN1/C(=C/C=C2\CCCC(/C=C/C3=[N+](CCC)c4ccccc4C3(C)C)=C2N(Cc2ccccc2OCC)C(C)=O)C(C)(C)c2ccccc21` [CyNA-103]: in data set [1], the “F/Fo … vs 0 hours” value was 92 and the “max RFU, maximum relative fluorescence units” value was found to be 1106.6. In data set [2], the “λabs, absorbance maximum wavelength” value is 804 nm; the “λem, fluorescence maximum wavelength” value is 821 nm; the “φ, quantum yield” value was 0.14.

As for `CCCN1/C(=C/C=C2\CCCC(/C=C/C3=[N+](CCC)c4ccccc4C3(C)C)=C2N(CC(C)C)C(C)=O)C(C)(C)c2ccccc21` [CyNA-487], in data set [1], the “F/Fo … vs 0 hours” value is given as 30 and the “max RFU, maximum relative fluorescence units” value came out at 45.3. In data set [2], the “λabs, absorbance maximum wavelength” value turned out to be 806 nm; the “λem, fluorescence maximum wavelength” value is given as 823 nm; the “φ, quantum yield” value is recorded as 0.04.

As for `CCCN1/C(=C/C=C2\CCCC(/C=C/C3=[N+](CCC)c4ccccc4C3(C)C)=C2N(Cc2ccc(OC)cc2OC)C(C)=O)C(C)(C)c2ccccc21` [CyNA-358], in data set [1], the “F/Fo … vs 0 hours” value came to 100 and the “max RFU, maximum relative fluorescence units” value came out at 487.4. Besides, in data set [2], the “λabs, absorbance maximum wavelength” value amounted to 805 nm; the “λem, fluorescence maximum wavelength” value came out at 819 nm; the “φ, quantum yield” value turned out to be 0.14.

Take `CCCN1/C(=C/C=C2\CCCC(/C=C/C3=[N+](CCC)c4ccccc4C3(C)C)=C2N(CCC(c2ccccc2)c2ccccc2)C(C)=O)C(C)(C)c2ccccc21` [CyNA-100]: in data set [1], the “F/Fo … vs 0 hours” value turned out to be 63 and the “max RFU, maximum relative fluorescence units” value is 333.8. Further, in data set [2], the “λabs, absorbance maximum wavelength” value turned out to be 804 nm; the “λem, fluorescence maximum wavelength” value worked out at 819 nm; the “φ, quantum yield” value is 0.08.

`CCCN1/C(=C/C=C2\CCCC(/C=C/C3=[N+](CCC)c4ccccc4C3(C)C)=C2N(CCc2ccc(O)cc2)C(C)=O)C(C)(C)c2ccccc21` [CyNA-346]: in data set [1], the “F/Fo … vs 0 hours” value was found to be 69 and the “max RFU, maximum relative fluorescence units” value is reported as 434.2. Further, in data set [2], the “λabs, absorbance maximum wavelength” value stood at 804 nm; the “λem, fluorescence maximum wavelength” value is recorded as 822 nm; the “φ, quantum yield” value amounted to 0.07.

Regarding `CCCN1/C(=C/C=C2\CCCC(/C=C/C3=[N+](CCC)c4ccccc4C3(C)C)=C2N(Cc2cccc3ccccc23)C(C)=O)C(C)(C)c2ccccc21` [CyNA-542], in data set [1], the “F/Fo … vs 0 hours” value was 74 and the “max RFU, maximum relative fluorescence units” value amounted to 442.7. In addition, in data set [2], the “λabs, absorbance maximum wavelength” value worked out at 805 nm; the “λem, fluorescence maximum wavelength” value is 821 nm; the “φ, quantum yield” value was 0.08.

For `CCCN1/C(=C/C=C2\CCCC(/C=C/C3=[N+](CCC)c4ccccc4C3(C)C)=C2N(Cc2cccc(Cl)c2)C(C)=O)C(C)(C)c2ccccc21` [CyNA-403], in data set [1], the “F/Fo … vs 0 hours” value was 45 and the “max RFU, maximum relative fluorescence units” value stood at 261.6. Moreover, in data set [2], the “λabs, absorbance maximum wavelength” value is reported as 805 nm; the “λem, fluorescence maximum wavelength” value turned out to be 819 nm; the “φ, quantum yield” value was 0.05.

Turning to `CCCN1/C(=C/C=C2\CCCC(/C=C/C3=[N+](CCC)c4ccccc4C3(C)C)=C2N(CCCOCC)C(C)=O)C(C)(C)c2ccccc21` [CyNA-167], in data set [1], the “F/Fo … vs 0 hours” value is on record as 92 and the “max RFU, maximum relative fluorescence units” value is reported as 1031.8. In addition, in data set [2], the “λabs, absorbance maximum wavelength” value was determined as 804 nm; the “λem, fluorescence maximum wavelength” value came out at 818 nm; the “φ, quantum yield” value is 0.10.

For `CCCN1/C(=C/C=C2\CCCC(/C=C/C3=[N+](CCC)c4ccccc4C3(C)C)=C2N(CCCN(C)C)C(C)=O)C(C)(C)c2ccccc21` [CyNA-427], in data set [1], the “F/Fo … vs 0 hours” value came out at 100 and the “max RFU, maximum relative fluorescence units” value is recorded as 1247.4. For the same compound, in data set [2], the “λabs, absorbance maximum wavelength” value is recorded as 805 nm; the “λem, fluorescence maximum wavelength” value amounted to 821 nm; the “φ, quantum yield” value turned out to be 0.14.

For the compound `CCCN1/C(=C/C=C2\CCCC(/C=C/C3=[N+](CCC)c4ccccc4C3(C)C)=C2N(Cc2ccccc2C)C(C)=O)C(C)(C)c2ccccc21` [CyNA-101], in data set [1], the “F/Fo … vs 0 hours” value is on record as 86 and the “max RFU, maximum relative fluorescence units” value was 693.9. Moreover, in data set [2], the “λabs, absorbance maximum wavelength” value turned out to be 806 nm; the “λem, fluorescence maximum wavelength” value was found to be 822 nm; the “φ, quantum yield” value was 0.08.

Regarding `CCCN1/C(=C/C=C2\CCCC(/C=C/C3=[N+](CCC)c4ccccc4C3(C)C)=C2N(CCC(C)C)C(C)=O)C(C)(C)c2ccccc21` [CyNA-442], in data set [1], the “F/Fo … vs 0 hours” value is 54 and the “max RFU, maximum relative fluorescence units” value was determined as 424.2. In data set [2], the “λabs, absorbance maximum wavelength” value turned out to be 806 nm; the “λem, fluorescence maximum wavelength” value is reported as 822 nm; the “φ, quantum yield” value came out at 0.07.

Turning to `CCCN1/C(=C/C=C2\CCCC(/C=C/C3=[N+](CCC)c4ccccc4C3(C)C)=C2N(CCCc2ccccc2)C(C)=O)C(C)(C)c2ccccc21` [CyNA-335], in data set [1], the “F/Fo … vs 0 hours” value worked out at 50 and the “max RFU, maximum relative fluorescence units” value was found to be 167.9. In data set [2], the “λabs, absorbance maximum wavelength” value came to 804 nm; the “λem, fluorescence maximum wavelength” value came to 821 nm; the “φ, quantum yield” value was found to be 0.06.

Regarding `CCCN1/C(=C/C=C2\CCCC(/C=C/C3=[N+](CCC)c4ccccc4C3(C)C)=C2N(CCc2cccc(OC)c2)C(C)=O)C(C)(C)c2ccccc21` [CyNA-102], in data set [1], the “F/Fo … vs 0 hours” value was 63 and the “max RFU, maximum relative fluorescence units” value amounted to 998.9. Moreover, in data set [2], the “λabs, absorbance maximum wavelength” value was 805 nm; the “λem, fluorescence maximum wavelength” value is reported as 822 nm; the “φ, quantum yield” value is recorded as 0.14.

`CCCCCCCCCCCCCCN(C(C)=O)C1=C(/C=C/C2=[N+](CCC)c3ccccc3C2(C)C)CCC/C1=C\C=C1\N(CCC)c2ccccc2C1(C)C` [CyNA-28]: in data set [1], the “F/Fo … vs 0 hours” value is 87 and the “max RFU, maximum relative fluorescence units” value is 23.9. Further, in data set [2], the “λabs, absorbance maximum wavelength” value is recorded as 804 nm; the “λem, fluorescence maximum wavelength” value was 818 nm; the “φ, quantum yield” value was determined as 0.05.

`CCCN1/C(=C/C=C2\CCCC(/C=C/C3=[N+](CCC)c4ccccc4C3(C)C)=C2N(CCc2ccc(OC)c(OC)c2)C(C)=O)C(C)(C)c2ccccc21` [CyNA-266]: in data set [1], the “F/Fo … vs 0 hours” value is recorded as 99 and the “max RFU, maximum relative fluorescence units” value was 541.8. In addition, in data set [2], the “λabs, absorbance maximum wavelength” value is listed as 804 nm; the “λem, fluorescence maximum wavelength” value was 823 nm; the “φ, quantum yield” value is listed as 0.08.

For `CCCN1/C(=C/C=C2\CCCC(/C=C/C3=[N+](CCC)c4ccccc4C3(C)C)=C2N(Cc2c(OC)cc(OC)cc2OC)C(C)=O)C(C)(C)c2ccccc21` [CyNA-336], in data set [1], the “F/Fo … vs 0 hours” value is on record as 85 and the “max RFU, maximum relative fluorescence units” value is 827.7. In data set [2], the “λabs, absorbance maximum wavelength” value is listed as 804 nm; the “λem, fluorescence maximum wavelength” value is given as 820 nm; the “φ, quantum yield” value turned out to be 0.11.

Consider `CCCCC(CC)COCCCN(C(C)=O)C1=C(/C=C/C2=[N+](CCC)c3ccccc3C2(C)C)CCC/C1=C\C=C1\N(CCC)c2ccccc2C1(C)C` (stereo not drawn) [CyNA-193], for which the “max RFU, maximum relative fluorescence units” value in data set [1] is recorded as 58.7. Besides, in data set [2], the “λabs, absorbance maximum wavelength” value is 806 nm; the “λem, fluorescence maximum wavelength” value is reported as 822 nm; the “φ, quantum yield” value stood at 0.12.
